Measured values reported in patent US20100041089A1, “IMPROVED METHOD FOR DETECTING CHEMICAL […]” (priority 2006, published 2010).

Tested on: yeast genes (expressed mRNA)
Assay: DNA chip measurement of expressed mRNA of yeast genes after culture with a toxic chemical substance
Assay type: cell-based, Saccharomyces cerevisiae S288C
Conditions: for level of expressed mRNA in the presence of chemical substance / level in the absence of chemical substance: cultured two hours with the chemical substance; for The level of expressed mRNA in the presence of chemical substance/The level of expressed mRNA in the absence of chemical substance: cultured two hours with substance
Experimental: Yeast (Saccharomyces cerevisiae S288C (a SUC2mal mel gap2 CUP1)) were cultured at 25° C. on YPD medium (yeast extract 1%, polypeptone 2%, glucose 2%). One of toxic chemical substances was added to the cell at logarithmic growth phase, and the cell was further cultured for two hours. Cell was cultured without any chemical substance in the same condition, and was used as a control. Concentrations of the chemical substances were defined to inhibit the growth of the yeast but not lead to death.
After the completion of cultivation, the culture was centrifuged to collect the cells. To the cells, sodium acetate buffer (50 mM sodium acetate, 10 mM EDTA, 1% SDS) was added, and the mixture was shaken at 65° C. for five minutes, followed by returning to room temperature, and obtaining the supernatant, which procedure was repeated two times. To the supernatant, ½ amount of a solution of phenol/chloroform (1:1) was added, and the mixture was centrifuged to give a supernatant, an equal amount of chloroform was added, and the mixture was centrifuged to give a supernatant. To the supernatant, an equal amount of isopropanol containing 0.3 M sodium acetate was added, and the mixture was allowed to stand at room temperature for 30 minutes, after which the mixture was centrifuged to give sediment of the whole RNAs. Seventy % ethanol was added to the sediment, and the mixture was again centrifuged to give sediment, which was then dried and dissolved in water. mRNA was isolated from the whole RNAs as followings. In view of the fact that a poly A chain is attached to the 3′ terminus of mRNA, a polynucleotide having a poly T structure which was immobilized on the surface of latex beads was used to trap the mRNA, and then the mRNA was washed and eluted with spine column (Oligotex-dT30<Super>mRNA Purification Kit, Takara). Reverse transcription of the mRNA was conducted with a reverse transcriptase (Super Script II Reverse Transcriptase; catalogue No. 18064-014, GibcoBRL) using fluorescence-labeled nucleotides to give cDNAs that were introduced with Cy3-dUTP or Cy5-dUTP during the reverse transcription.
The labeled cDNAs were dissolved in TE buffer (10 mM Tris-HCl/1 mM EDTA, pH 8.0), and the solution was dropped on the DNA chip containing the whole genes of yeast (DNA Chip Research Inc. Japan) so that the cDNAs were hybridized on the DNA chip at 65° C. for over 12 hours. The fluoresces intensity of the DNA chip was read with a scanner, and the ratio relative to the fluorescence intensity resulting from the absence of chemical substance was estimated as the following, which is shown in Tables 1 to 9.
In the Tables, “Intensity” indicated in the rightmost column is a value of the level of expressed mRNA of each gene in control cells as divided by the average level of the expressions of the whole genes. A gene of which mRNA level is lower in control, and is higher in cases of addition of chemical substance, is especially useful in the detection of toxic substances.
Here, when a ratio of an amount of mRNA expressed in the presence of the chemical substance to an amount of mRNA expressed in the absence of the chemical substance is two or more, then it is considered significant.

Q: For `[Cl][Pb][Cl]` [(4), PbCl2], which “level of expressed mRNA in the presence of chemical substance / level in the absence of chemical substance” value (yeast gene YDR133C) is on record?
A: Its value is 2.0.

Q: And the “level of expressed mRNA in the presence of chemical substance / level in the absence of chemical substance” value (yeast gene YDR250C)?
A: Its value is 3.0.

Q: What about the “level of expressed mRNA in the presence of chemical substance / level in the absence of chemical substance” value (yeast gene YDR278C) of the same compound?
A: The value was 1.0.

Q: And the “level of expressed mRNA in the presence of chemical substance / level in the absence of chemical substance” value (yeast gene YDR281C)?
A: The value was 2.1.

Q: And the “The level of expressed mRNA in the presence of chemical substance/The level of expressed mRNA in the absence of chemical substance” value (yeast gene YDR330W)?
A: Its value is 0.8.

Q: And the “level of expressed mRNA in the presence of chemical substance / level in the absence of chemical substance” value (yeast gene YDR366C)?
A: Its value is 0.9.

Q: And the “The level of expressed mRNA in the presence of chemical substance/The level of expressed mRNA in the absence of chemical substance” value (yeast gene YDR411C)?
A: The value was 1.2.

Q: What about the “The level of expressed mRNA in the presence of chemical substance/The level of expressed mRNA in the absence of chemical substance” value (yeast gene YDR511W) of the same compound?
A: The value was 2.3.

Q: And the “The level of expressed mRNA in the presence of chemical substance/The level of expressed mRNA in the absence of chemical substance” value (yeast gene YDR545W)?
A: The value was 0.7.

Q: What about the “The level of expressed mRNA in the presence of chemical substance/The level of expressed mRNA in the absence of chemical substance” value (yeast gene YEL001C) of the same compound?
A: The value was 0.7.

Q: And the “The level of expressed mRNA in the presence of chemical substance/The level of expressed mRNA in the absence of chemical substance” value (yeast gene YER004W)?
A: The value was 1.4.

Q: And the “The level of expressed mRNA in the presence of chemical substance/The level of expressed mRNA in the absence of chemical substance” value (yeast gene YER035W)?
A: The value was 1.9.

Q: And the “The level of expressed mRNA in the presence of chemical substance/The level of expressed mRNA in the absence of chemical substance” value (yeast gene YER079W)?
A: Its value is 2.0.

Q: And the “The level of expressed mRNA in the presence of chemical substance/The level of expressed mRNA in the absence of chemical substance” value (yeast gene YER106W)?
A: Its value is 1.2.

Q: What about the “The level of expressed mRNA in the presence of chemical substance/The level of expressed mRNA in the absence of chemical substance” value (yeast gene YER158C) of the same compound?
A: Its value is 3.1.

Q: And the “The level of expressed mRNA in the presence of chemical substance/The level of expressed mRNA in the absence of chemical substance” value (yeast gene YER163C)?
A: The value was 1.6.

Q: And the “The level of expressed mRNA in the presence of chemical substance/The level of expressed mRNA in the absence of chemical substance” value (yeast gene YER175C)?
A: The value was 2.2.

Q: What about the “The level of expressed mRNA in the presence of chemical substance/The level of expressed mRNA in the absence of chemical substance” value (yeast gene YFL006W) of the same compound?
A: The value was 1.0.

Q: What about the “The level of expressed mRNA in the presence of chemical substance/The level of expressed mRNA in the absence of chemical substance” value (yeast gene YFL010C) of the same compound?
A: Its value is 1.0.

Q: And the “The level of expressed mRNA in the presence of chemical substance/The level of expressed mRNA in the absence of chemical substance” value (yeast gene YFL024C)?
A: Its value is 0.7.

Q: And the “The level of expressed mRNA in the presence of chemical substance/The level of expressed mRNA in the absence of chemical substance” value (yeast gene YFL032W)?
A: The value was 0.8.

Q: What about the “level of expressed mRNA in the presence of chemical substance / level in the absence of chemical substance” value (yeast gene YFR026C) of the same compound?
A: Its value is 0.8.

Q: What about the “The level of expressed mRNA in the presence of chemical substance/The level of expressed mRNA in the absence of chemical substance” value (yeast gene YGL037C) of the same compound?
A: Its value is 2.1.

Q: What about the “The level of expressed mRNA in the presence of chemical substance/The level of expressed mRNA in the absence of chemical substance” value (yeast gene YGL047W) of the same compound?
A: Its value is 2.3.

Q: What about the “The level of expressed mRNA in the presence of chemical substance/The level of expressed mRNA in the absence of chemical substance” value (yeast gene YGL053W) of the same compound?
A: Its value is 2.5.

Q: What about the “level of expressed mRNA in the presence of chemical substance / level in the absence of chemical substance” value (yeast gene YGL088W) of the same compound?
A: Its value is 1.1.

Q: What about the “The level of expressed mRNA in the presence of chemical substance/The level of expressed mRNA in the absence of chemical substance” value (yeast gene YGL121C) of the same compound?
A: Its value is 4.2.

Q: What about the “The level of expressed mRNA in the presence of chemical substance/The level of expressed mRNA in the absence of chemical substance” value (yeast gene YGL199C) of the same compound?
A: Its value is 1.0.

Q: What about the “level of expressed mRNA in the presence of chemical substance / level in the absence of chemical substance” value (yeast gene YGR038W) of the same compound?
A: Its value is 0.8.

Q: And the “The level of expressed mRNA in the presence of chemical substance/The level of expressed mRNA in the absence of chemical substance” value (yeast gene YGR101W)?
A: Its value is 1.1.

Q: And the “The level of expressed mRNA in the presence of chemical substance/The level of expressed mRNA in the absence of chemical substance” value (yeast gene YGR110W)?
A: Its value is 5.9.

Q: What about the “The level of expressed mRNA in the presence of chemical substance/The level of expressed mRNA in the absence of chemical substance” value (yeast gene YGR130C) of the same compound?
A: The value was 1.6.

Q: And the “level of expressed mRNA in the presence of chemical substance / level in the absence of chemical substance” value (yeast gene YGR139W)?
A: The value was 0.7.

Q: And the “The level of expressed mRNA in the presence of chemical substance/The level of expressed mRNA in the absence of chemical substance” value (yeast gene YGR154C)?
A: Its value is 0.5.

Q: And the “The level of expressed mRNA in the presence of chemical substance/The level of expressed mRNA in the absence of chemical substance” value (yeast gene YGR221C)?
A: Its value is 1.4.

Q: What about the “level of expressed mRNA in the presence of chemical substance / level in the absence of chemical substance” value (yeast gene YGR243W) of the same compound?
A: Its value is 5.0.

Q: What about the “level of expressed mRNA in the presence of chemical substance / level in the absence of chemical substance” value (yeast gene YGR293C) of the same compound?
A: Its value is 0.0.

Q: What about the “level of expressed mRNA in the presence of chemical substance / level in the absence of chemical substance” value (yeast gene YHL006C) of the same compound?
A: Its value is 0.6.

Q: What about the “level of expressed mRNA in the presence of chemical substance / level in the absence of chemical substance” value (yeast gene YHR095W) of the same compound?
A: Its value is 2.1.

Q: And the “level of expressed mRNA in the presence of chemical substance / level in the absence of chemical substance” value (yeast gene YHR105W)?
A: Its value is 6.3.

Q: What about the “The level of expressed mRNA in the presence of chemical substance/The level of expressed mRNA in the absence of chemical substance” value (yeast gene YHR138C) of the same compound?
A: Its value is 2.8.

Q: What about the “level of expressed mRNA in the presence of chemical substance / level in the absence of chemical substance” value (yeast gene YHR181W) of the same compound?
A: Its value is 1.4.

Q: What about the “The level of expressed mRNA in the presence of chemical substance/The level of expressed mRNA in the absence of chemical substance” value (yeast gene YHR199C) of the same compound?
A: The value was 2.0.

Q: And the “The level of expressed mRNA in the presence of chemical substance/The level of expressed mRNA in the absence of chemical substance” value (yeast gene YIL023C)?
A: Its value is 1.8.

Q: What about the “The level of expressed mRNA in the presence of chemical substance/The level of expressed mRNA in the absence of chemical substance” value (yeast gene YIL041W) of the same compound?
A: The value was 1.3.

Q: What about the “The level of expressed mRNA in the presence of chemical substance/The level of expressed mRNA in the absence of chemical substance” value (yeast gene YIL087C) of the same compound?
A: Its value is 1.6.

Q: What about the “level of expressed mRNA in the presence of chemical substance / level in the absence of chemical substance” value (yeast gene YIL127C) of the same compound?
A: The value was 1.2.

Q: What about the “level of expressed mRNA in the presence of chemical substance / level in the absence of chemical substance” value (yeast gene YJL017W) of the same compound?
A: Its value is 1.1.

Q: What about the “level of expressed mRNA in the presence of chemical substance / level in the absence of chemical substance” value (yeast gene YJL037W) of the same compound?
A: Its value is 2.4.

Q: What about the “The level of expressed mRNA in the presence of chemical substance/The level of expressed mRNA in the absence of chemical substance” value (yeast gene YJL057C) of the same compound?
A: Its value is 1.7.

Q: What about the “The level of expressed mRNA in the presence of chemical substance/The level of expressed mRNA in the absence of chemical substance” value (yeast gene YJL066C) of the same compound?
A: Its value is 2.5.

Q: What about the “The level of expressed mRNA in the presence of chemical substance/The level of expressed mRNA in the absence of chemical substance” value (yeast gene YJL082W) of the same compound?
A: The value was 1.1.
